Like-named read-outs stand apart in the source and are kept apart here.
Assays:
[1] = Reducing power activity (iron (III) to iron (II) reduction); settings: absorbance at 700 nm; mean ± SD of triplicate
Experimental: • ○ Reducing Power Activity (Iron (III) to iron (II) reduction) Reducing power was determined according to a previously described procedure. The absorbance was measured spectrophotometrically at 700 nm and calculation was carried out using the following formula:Reducing power (%) = [(AA − AB)/AA] × 100(3) where AA = sample absorbance; AB = control absorbance.

[2] = DPPH radical scavenging activity; settings: absorbance at 517 nm after 10 min; mean ± SD of triplicate
Experimental: The scavenging activity on the DPPH radical of samples was determined by measuring the decrease in the DPPH maximum absorbency at 517 nm after 10 min [64] and was calculated as follows:radical scavenging activity (%) = [(AB − AA)/AB] × 100(2) where: AB = control absorbance and AA = sample absorbance.

[3] = target: T1, α-amylase from hog pancreas (EC 3.2.1.1) (Sus scrofa, UniProt P00690); experiment: α-Amylase inhibition assay; assay type: biochemical; settings: hog pancreas enzyme, starch substrate, 37 °C, DNS, pH 6.9; mean ± SD of triplicate
T1 construct: from tissue; host or cells: hog pancreas
T1 sequence (P00690 16-511): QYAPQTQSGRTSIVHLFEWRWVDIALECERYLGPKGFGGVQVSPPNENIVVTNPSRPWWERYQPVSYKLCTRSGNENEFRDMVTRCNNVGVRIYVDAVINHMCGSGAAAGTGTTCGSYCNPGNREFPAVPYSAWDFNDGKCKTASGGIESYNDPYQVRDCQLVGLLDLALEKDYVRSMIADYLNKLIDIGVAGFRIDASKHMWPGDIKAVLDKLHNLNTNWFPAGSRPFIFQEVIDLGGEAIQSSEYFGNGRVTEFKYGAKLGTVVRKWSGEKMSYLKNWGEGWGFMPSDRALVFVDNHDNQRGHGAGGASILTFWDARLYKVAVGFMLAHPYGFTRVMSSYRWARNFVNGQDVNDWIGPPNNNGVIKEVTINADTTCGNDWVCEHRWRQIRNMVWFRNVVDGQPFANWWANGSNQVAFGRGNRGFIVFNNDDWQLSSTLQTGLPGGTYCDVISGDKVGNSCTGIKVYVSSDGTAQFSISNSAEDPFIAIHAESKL
Experimental: The α-amylase inhibition assay was performed according to the Ranilla method, which was slightly modified. Thus, 100 μL of extract was mixed with 250 μL of α-amylase from hog pancreas (EC 3.2.1.1) (0.5 mg/mL in 0.02 M sodium phosphate buffer, pH 6.9 with 0.006 M NaCl) and was incubated at 37 °C for 20 min; then, 250 μL of starch solution (1% in sodium phosphate buffer) was added, and the mixture was incubated at 37 °C for 30 min; then, 500 μL of dinitrosalicylic acid (DNS) was added and the mixture was boiled for 5 min. Finally, 5 mL of distilled water was added to the reaction mixture. […] The calculation of the results was carried out using the following formula:(4) % Amylase inhibition=ΔAcontrol−ΔAsample/ΔAcontrol × 100
(§1) The IC50 values were calculated via the linear regression analysis. Significant statistical differences were considered at p < 0.05.

[4] = target: T2, lipoxygenase (EC 1.13.11.12) (Glycine max, UniProt P08170); experiment: Lipoxygenase inhibition assay; assay type: biochemical; settings: 234 nm, mean ± SD of triplicate
T2 sequence (P08170 1-839): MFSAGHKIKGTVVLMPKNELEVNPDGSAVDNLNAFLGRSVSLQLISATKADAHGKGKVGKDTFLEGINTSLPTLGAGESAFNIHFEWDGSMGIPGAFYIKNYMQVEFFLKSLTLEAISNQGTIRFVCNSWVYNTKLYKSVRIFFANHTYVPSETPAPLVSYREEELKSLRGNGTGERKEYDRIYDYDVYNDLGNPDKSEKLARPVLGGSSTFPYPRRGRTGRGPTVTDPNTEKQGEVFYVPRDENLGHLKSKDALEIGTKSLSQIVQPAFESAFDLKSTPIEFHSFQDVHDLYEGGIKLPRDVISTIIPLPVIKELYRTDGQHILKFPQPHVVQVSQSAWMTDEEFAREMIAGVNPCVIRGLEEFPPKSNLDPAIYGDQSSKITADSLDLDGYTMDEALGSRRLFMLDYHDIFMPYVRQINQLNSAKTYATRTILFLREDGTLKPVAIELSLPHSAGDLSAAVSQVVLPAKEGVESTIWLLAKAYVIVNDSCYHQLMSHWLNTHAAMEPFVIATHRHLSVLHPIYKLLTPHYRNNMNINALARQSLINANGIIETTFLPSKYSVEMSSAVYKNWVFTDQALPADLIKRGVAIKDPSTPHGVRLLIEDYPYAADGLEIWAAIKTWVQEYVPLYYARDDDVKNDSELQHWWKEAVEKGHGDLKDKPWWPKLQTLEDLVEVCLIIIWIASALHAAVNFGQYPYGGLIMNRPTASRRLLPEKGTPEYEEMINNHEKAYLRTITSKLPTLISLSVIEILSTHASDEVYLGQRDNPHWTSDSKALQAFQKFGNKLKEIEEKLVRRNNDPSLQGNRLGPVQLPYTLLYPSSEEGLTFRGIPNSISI
Experimental: as §1

[5] = target: α-glucosidase from Saccharomyces cerevisiae (EC 3.2.1.20) (Saccharomyces cerevisiae, UniProt P53341); experiment: α-Glucosidase inhibition assay; assay type: biochemical
Sequence of α-glucosidase from Saccharomyces cerevisiae (EC 3.2.1.20) (P53341 whole entry): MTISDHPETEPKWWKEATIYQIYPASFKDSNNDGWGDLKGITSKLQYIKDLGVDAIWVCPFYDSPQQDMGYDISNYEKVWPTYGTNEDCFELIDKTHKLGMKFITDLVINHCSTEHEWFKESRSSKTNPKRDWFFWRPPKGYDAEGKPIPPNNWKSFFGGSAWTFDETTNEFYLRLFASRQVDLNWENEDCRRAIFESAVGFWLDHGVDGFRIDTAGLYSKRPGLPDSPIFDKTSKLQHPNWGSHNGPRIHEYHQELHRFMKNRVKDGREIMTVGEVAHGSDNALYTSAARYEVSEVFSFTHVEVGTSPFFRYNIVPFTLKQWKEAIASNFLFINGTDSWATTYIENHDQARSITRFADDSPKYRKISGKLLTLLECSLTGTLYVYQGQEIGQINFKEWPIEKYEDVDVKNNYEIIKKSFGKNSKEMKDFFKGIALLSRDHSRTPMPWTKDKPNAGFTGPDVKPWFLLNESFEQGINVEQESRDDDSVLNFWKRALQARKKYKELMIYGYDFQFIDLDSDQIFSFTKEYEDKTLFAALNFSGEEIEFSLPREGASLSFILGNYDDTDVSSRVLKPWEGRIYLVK
Experimental: as §1

[6] = linoleic acid substrate, read-out: Inhibition of LOX IC50 (converted)

Structure (SMILES) | IC50 [3] [µM] | IC50 [4, 6] [µM] | further results
O=C1O[C@H]([C@@H](O)CO)C(O)=C1O [Ascorbic acid] |  |  | Reducing Power % [1]: 34.5 ± 1.3%; % DPPH Inhibition [2]: 96.9 ± 3.6%
O=C(/C=C/c1ccc(O)c(O)c1)O[C@@H]1C[C@](O)(C(=O)O)C[C@@H](O)[C@H]1O [Chlorogenic acid] | 5.36 | 73.7 | 
O=C(/C=C/c1ccc(O)c(O)c1)O[C@H](Cc1ccc(O)c(O)c1)C(=O)O [Rosmarinic acid] | 2.5 |  | IC50 [5]: 0.5 µM; IC50 ([4]; Inhibition of LOX IC50, linoleic acid substrate): 84.1 µM
C[C@@H]1O[C@@H](OC[C@H]2O[C@@H](Oc3c(-c4ccc(O)c(O)c4)oc4cc(O)cc(O)c4c3=O)[C@H](O)[C@@H](O)[C@@H]2O)[C@H](O)[C@H](O)[C@H]1O [Rutin] |  | 36.6 | 
